Values after ≈ are worked out from the molar mass of the structure shown.

The values that follow come from EPA's ToxValDB 9.5.

One series concerns Gallus gallus. Conditions: subchronic, duration: 35 days, oral, diet.
The test system of another series is Macromiidae. Conditions: acute; duration: 72 hours; growth.
Another series deals with Anatidae. Conditions: subchronic; duration: 41 days; oral; feed; M/F; no effects.
A further series concerns Bovidae. Conditions: oral; for LEL: diet, M/F, no effects.
A further series concerns Canidae. Conditions: oral, Dog Other.
The test system of another series is Equus caballus. Conditions: oral.
The subject of another series is Oncorhynchus mykiss. Conditions: for LC50: acute, duration: 96 hours; for NOEC: chronic/long-term.
In another series the test system is Apis mellifera. Conditions: acute; duration: 48 hours; dermal; mortality.
The test system of a further series is Daphnia magna. Conditions: chronic/long-term; duration: 21 days.
Another series deals with Rattus norvegicus. Conditions: for LD50: acute.
The next series deals with Lolium perenne. Conditions: acute; growth.
A further series concerns Meleagris sp. Conditions: subchronic; duration: 84 days; oral; feed; M/F; no effects.
The subject of another series is Mus musculus. Conditions: chronic; duration: 2 years; M/F; B6C3F1; body weight.
The subject of another series is Bibionidae. Conditions: chronic/long-term.
Another series relates to Colinus virginianus. Conditions: acute; oral; mortality.
Another series deals with Cyprinodon variegatus. Conditions: acute; duration: 96 hours; mortality.
A further series relates to Lepomis macrochirus. Conditions: acute; duration: 96 hours; mortality.
The next series relates to Evynnis japonica. Conditions: acute; duration: 12 hours; mortality.
The next series has as its system Metacarcinus magister. Conditions: chronic/long-term; duration: 200 hours; mortality.
For series [1] the following is noted: chronic/long-term; development.
Setting [2] is: short-term, oral, feed, mortality.

A word on the NOAEL: it is the highest dose or exposure tested at which no adverse effect was seen. In the series with Gallus gallus (M, Chicken, body weight), `O=C([O-])CC[C@@H](C(=O)[O-])N(CC(=O)[O-])CC(=O)[O-].[Na+].[Na+].[Na+].[Na+]` [Tetrasodium glutamate diacetate] registered an LEL of 10000 mg/kg-day. Also, the NOEC in the series on Macromiidae amounted to 1 mg/L; in the series with Pontoscolex corethrurus (reproductive, no effects), 248 mg/kg. This molecule also showed an NOAEL with Oryctolagus sp. (reproduction developmental, duration: 21 days, oral, gavage, F, New Zealand, clinical signs) of 20 mg/kg-day.

As to `CC[C@@H](C(=O)O)[C@@H]1O[C@@H]([C@@H](C)[C@H](O)[C@H](C)C(=O)[C@H](CC)[C@H]2O[C@]3(C=C[C@@H](O)[C@]4(CC[C@@](C)([C@H]5CC[C@](O)(CC)[C@H](C)O5)O4)O3)[C@H](C)C[C@@H]2C)[C@@H](C)C[C@@H]1C` [Narasin], the LEL with Anatidae was 280 mg/kg; in the series with Equus caballus (short-term, duration: 1 months, feed, M/F, food consumption) it was 80 mg/kg; in the series with Oryctolagus sp. (acute, Hungarian, clinical signs) it was at least 35 mg/kg-day. The molecule also returned an NOEL with Bovidae (short-term, duration: 14 days, gavage, F, clinical signs) of 0.5 mg/kg-day. The molecule further showed an NOAEL in the series with Canidae (chronic, duration: 1 years, capsule, M/F, histopathology: nonneoplastic) of 0.5 mg/kg-day. In the series on Oncorhynchus mykiss (mortality), this molecule gave an LC50 of 2.23 µg/mL (≈ 2.91 µM). In the series on Pontoscolex corethrurus (acute, duration: 7 days, body weight), this molecule came in with an NOEC of 4.3 mg/kg.

`CCCCCCCCCCO` [1-Decanol]: the LD50 with Anas platyrhynchos (acute, oral, unspecified, mortality) is over 4640 mg/kg-day; in the series with Apis mellifera it was over 13.8 µg/piece; with Rattus norvegicus (oral, mortality), 4720 mg/kg-day. For the same molecule, the LC50 in the series on Anas platyrhynchos (setting [2]) is over 2550 mg/kg-day; with Pimephales promelas (acute, duration: 96 hours, mortality) it was 2.4 µg/mL (≈ 15.2 µM); in the series with Tagia sp. (acute, duration: 14 days, mortality), over 628 mg/kg. The NOEC in the series on Daphnia magna amounted to 0.51 mg/L; with Oncorhynchus mykiss (duration: 28 days, growth) it was 0.0064 mg/L. The NOAEL with Rattus norvegicus (reproduction developmental, no effects) came to 1000 mg/kg-day.

As for `CC[C@@]1([C@@H]2O[C@@H]([C@H]3O[C@@](O)(CO)[C@H](C)C[C@@H]3C)C[C@@H]2C)CC[C@H]([C@]2(C)CC[C@]3(C[C@H](O)[C@@H](C)[C@@H]([C@@H](C)[C@@H](OC)[C@H](C)C(=O)[O-])O3)O2)O1.[Na+]` [Monensin sodium], the NOEL worked out at 62 mg/kg in the series with Anas platyrhynchos (short-term, duration: 8 days, oral, feed, body weight); 0.345 mg/kg-day with Canidae (repeat dose other, clinical signs); 1.2 mg/kg-day in the series on Mus musculus; 0.3 mg/kg-day in the series with Oryctolagus sp. (reproduction developmental, duration: 23 days, oral, gavage, F, body weight). Besides, the LEL in the series with Bovidae (chronic, duration: 160 days) came out at 110 mg/kg-day; in the series with Bovidae (short-term, duration: 28 days), 4.5 mg/kg-day; with Gallus gallus (M/F, no effects), 125 mg/kg-day; in the series on Meleagris sp. it was 100 mg/kg. The LD50 in the series with Equus caballus (acute, gavage, mortality) stood at 1.38 mg/kg. Also, the NOEC came to 2 mg/kg in the series on Lolium perenne; 0.05 mg/L in the series with Oncorhynchus mykiss (duration: 50 days, development); 50 mg/kg in the series on Tagia sp. (chronic/long-term, duration: 56 days, reproduction). Also, the LC50 in the series with Oncorhynchus mykiss (mortality) worked out at 1.88 µg/mL. In the series on Oryctolagus sp. (reproduction developmental), the NOAEL is 0.3 mg/kg-day.

`ClC=CCCl` [1,3-Dichloropropene]: the NOEC in the series with Anas platyrhynchos (reproductive) amounted to 36 mg/kg-day; with Bibionidae (duration: 28 days, other) it was 0.369 mg/L; with Pimephales promelas (chronic/long-term, duration: 33 days, growth), 0.0069 mg/L. Besides, the LD50 was 1080 mg/kg-day in the series on Anas platyrhynchos (setting [2]); 92 mg/kg-day in the series with Colinus virginianus; 130 mg/kg-day with Rattus norvegicus (oral, mortality). For the same molecule, in the series with Cyprinodon variegatus, the LC50 was determined as 0.87 µg/mL (≈ 7.84 µM). This molecule also yielded an NOAEL in the series with Rattus norvegicus (chronic, duration: 2 years, oral, diet, histopathology: neoplastic) of 2.5 mg/kg-day.

Consider `Cc1cc(C2CC2)nc(Nc2ccccc2)n1` [Cyprodinil], for which the NOEC in the series on Bibionidae (duration: 27 days) stood at 80 mg/kg; in the series on Bibionidae (duration: 28 days), 0.24 mg/L; with Daphnia magna, 0.0018 mg/L; in the series with Oncorhynchus mykiss (duration: 21 days), 0.083 mg/L. Further, the LC50 in the series with Lepomis macrochirus was determined as 2.17 µg/mL (≈ 9.63 µM); in the series with Oncorhynchus mykiss (mortality), 1.35 µg/mL (≈ 5.99 µM).

With `[Al+3].[Al+3].[O-2].[O-2].[O-2].[O-2].[O-2].[Si+4]` [Aluminum oxide silicate  (Al2O(SiO4))], the LC50 in the series on Evynnis japonica turned out to be 494 µg/mL; in the series on Metacarcinus magister, 32000 µg/mL. Moreover, the NOEC with Oncorhynchus mykiss (duration: 30 days, mortality) came to 100 mg/L. The LD50 in the series with Rattus norvegicus (oral, mortality) was over 5000 mg/kg.

For `CC(=O)O.CCCCCCCCCCCCN=C(N)N` [Dodecylguanidine acetate], the NOAEL in series [1] is 45 mg/kg-day. Further, the LD50 in the series on Anas platyrhynchos (acute, oral, unspecified) amounted to 857 mg/kg-day; in the series on Rattus norvegicus it was 851 mg/kg-day. Also, the NOEL in the series with Bird (reproductive) stood at 17 mg/kg-day. In addition, the LC50 with Bird (short-term, oral, feed) turned out to be 208 mg/kg-day.
